The text below walks through data of patent publication US20220009920A1 (GB005, Inc., priority 2020, published 2022).

What all share (assay): Large panel kinase profiling
What all share (assay type): biochemical
What all share (settings): 1 μM test article, 1 mM ATP

Experiment [1] deals with CAMK1A (Homo sapiens, UniProt Q14012). A digest of the protocol: (§1)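 Steps: combine kinase, CSox-Sensor substrate, 1 mM ATP and 1 μM compound; seal and incubate at 30° C.; read top fluorescence kinetically each minute, Ex 360 nm/Em 485 nm.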
CAMK1A, sequence (Q14012 whole entry): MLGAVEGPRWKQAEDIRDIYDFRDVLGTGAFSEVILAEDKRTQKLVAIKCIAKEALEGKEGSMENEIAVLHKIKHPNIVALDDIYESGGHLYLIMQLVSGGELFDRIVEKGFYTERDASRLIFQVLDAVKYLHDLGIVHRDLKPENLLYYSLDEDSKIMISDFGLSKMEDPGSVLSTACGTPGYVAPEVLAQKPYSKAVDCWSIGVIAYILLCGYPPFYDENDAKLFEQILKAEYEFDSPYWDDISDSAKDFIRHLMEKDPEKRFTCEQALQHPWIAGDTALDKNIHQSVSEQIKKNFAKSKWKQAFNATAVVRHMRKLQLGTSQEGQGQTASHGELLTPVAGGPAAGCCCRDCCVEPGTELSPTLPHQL
In experiment [2] the target is CAMK1G (Homo sapiens, UniProt Q96NX5). A digest of the protocol:
as §1

Experiment [3] concerns the target T1, CDC42BPB/MRCKB (Homo sapiens, UniProt Q9Y5S2).
T1 construct: AssayQuant Technologies, Inc. (ran the panel)
A digest of the protocol: as §1

Experiment [4] has as its target T2, CDK2/A2 (Homo sapiens, UniProt P24941).
T2 construct: AssayQuant Technologies, Inc. (ran the panel)
A digest of the protocol:
as §1

For experiment [5], the target named is T3, CHEK1/CHK1 (Homo sapiens, UniProt O14757).
T3 construct: AssayQuant Technologies, Inc. (ran the panel)
T3 sequence (O14757 1-476): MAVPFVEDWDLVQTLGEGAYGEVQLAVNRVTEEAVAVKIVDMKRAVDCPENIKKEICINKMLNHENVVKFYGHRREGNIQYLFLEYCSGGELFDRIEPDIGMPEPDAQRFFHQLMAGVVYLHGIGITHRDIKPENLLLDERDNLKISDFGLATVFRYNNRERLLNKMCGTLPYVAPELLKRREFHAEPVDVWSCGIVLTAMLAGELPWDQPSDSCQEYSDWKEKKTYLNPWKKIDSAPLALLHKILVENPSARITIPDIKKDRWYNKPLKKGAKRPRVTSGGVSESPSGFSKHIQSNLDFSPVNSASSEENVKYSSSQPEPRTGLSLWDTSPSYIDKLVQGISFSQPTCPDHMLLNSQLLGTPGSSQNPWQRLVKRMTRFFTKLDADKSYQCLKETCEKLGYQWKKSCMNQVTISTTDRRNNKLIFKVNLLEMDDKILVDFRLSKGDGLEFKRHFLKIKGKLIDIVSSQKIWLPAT
A digest of the protocol: as §1

The target of experiment [6] is T4, CSK (Homo sapiens, UniProt P41240).
T4 construct: AssayQuant Technologies, Inc. (service laboratory)
T4 sequence (P41240 whole entry, species assumed): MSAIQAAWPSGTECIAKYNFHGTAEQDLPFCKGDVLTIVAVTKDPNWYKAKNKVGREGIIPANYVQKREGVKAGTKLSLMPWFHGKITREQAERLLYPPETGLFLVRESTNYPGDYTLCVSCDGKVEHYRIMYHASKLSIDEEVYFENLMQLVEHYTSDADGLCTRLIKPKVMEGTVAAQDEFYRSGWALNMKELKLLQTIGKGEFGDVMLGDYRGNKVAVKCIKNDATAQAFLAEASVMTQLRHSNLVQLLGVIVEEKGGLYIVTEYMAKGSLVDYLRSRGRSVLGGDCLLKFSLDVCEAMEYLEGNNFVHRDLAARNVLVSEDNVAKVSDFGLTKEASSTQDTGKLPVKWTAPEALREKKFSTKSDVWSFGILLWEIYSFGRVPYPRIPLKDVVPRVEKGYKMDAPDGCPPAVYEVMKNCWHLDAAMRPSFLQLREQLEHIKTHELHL
A digest of the protocol: as §1

The target of experiment [7] is T5, DYRK1A (Homo sapiens, UniProt Q13627).
T5 construct: AssayQuant Technologies, Inc. (service laboratory)
A digest of the protocol:
as §1

Experiment [8] concerns the target FGFR4 (Homo sapiens, UniProt P22455). In a few lines: as §1
Experiment [9] deals with T6, ITK (Homo sapiens, UniProt Q08881).
T6 sequence (Q08881 1-620): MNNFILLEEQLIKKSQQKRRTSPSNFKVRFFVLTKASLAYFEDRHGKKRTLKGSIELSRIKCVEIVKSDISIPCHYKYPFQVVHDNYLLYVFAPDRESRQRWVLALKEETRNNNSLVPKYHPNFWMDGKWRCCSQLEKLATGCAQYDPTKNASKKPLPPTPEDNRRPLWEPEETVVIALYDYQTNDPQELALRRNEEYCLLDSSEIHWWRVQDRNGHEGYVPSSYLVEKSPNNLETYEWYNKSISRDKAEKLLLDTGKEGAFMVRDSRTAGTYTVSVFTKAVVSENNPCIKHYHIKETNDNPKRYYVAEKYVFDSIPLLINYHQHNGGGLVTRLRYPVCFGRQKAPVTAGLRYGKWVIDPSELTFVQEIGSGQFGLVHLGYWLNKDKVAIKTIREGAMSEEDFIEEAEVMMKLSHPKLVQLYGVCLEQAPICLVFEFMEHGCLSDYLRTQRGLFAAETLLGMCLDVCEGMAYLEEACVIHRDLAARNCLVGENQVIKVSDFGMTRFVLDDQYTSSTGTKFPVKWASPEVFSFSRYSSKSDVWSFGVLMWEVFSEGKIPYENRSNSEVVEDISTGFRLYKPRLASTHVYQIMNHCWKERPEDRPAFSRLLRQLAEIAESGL
In a few lines:
as §1

In experiment [10] the target is KDR (Homo sapiens, UniProt P35968). A digest of the protocol:
as §1

Experiment [11] concerns the target MAP3K14 (Homo sapiens, UniProt Q99558). A digest of the protocol: as §1
Experiment [12] has as its target T7, MAPK7/ERK5 (Homo sapiens, UniProt Q13164).
T7 construct: AssayQuant Technologies, Inc. (service provider)
In a few lines:
as §1

In experiment [13] the target is T8, NEK6 (Homo sapiens, UniProt Q9HC98).
T8 construct: AssayQuant Technologies, Inc. (assay service)
T8 sequence (Q9HC98 whole entry, species assumed): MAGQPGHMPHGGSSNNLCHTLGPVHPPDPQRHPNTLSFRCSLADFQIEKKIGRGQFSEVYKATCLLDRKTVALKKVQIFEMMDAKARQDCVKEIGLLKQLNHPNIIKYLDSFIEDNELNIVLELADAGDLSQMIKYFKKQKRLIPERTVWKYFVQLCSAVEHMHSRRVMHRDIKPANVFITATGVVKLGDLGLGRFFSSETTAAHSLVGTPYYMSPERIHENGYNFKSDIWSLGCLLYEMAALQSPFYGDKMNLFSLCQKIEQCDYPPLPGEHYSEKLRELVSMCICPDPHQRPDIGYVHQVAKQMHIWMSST
In a few lines:
as §1

Experiment [14] has as its target PAK1 (Homo sapiens, UniProt Q13153). In a few lines:
as §1

The target in experiment [15] is T9, STK4/MST1 (Homo sapiens, UniProt Q13043).
T9 construct: AssayQuant Technologies, Inc. (contract assay)
T9 sequence (Q13043 1-487): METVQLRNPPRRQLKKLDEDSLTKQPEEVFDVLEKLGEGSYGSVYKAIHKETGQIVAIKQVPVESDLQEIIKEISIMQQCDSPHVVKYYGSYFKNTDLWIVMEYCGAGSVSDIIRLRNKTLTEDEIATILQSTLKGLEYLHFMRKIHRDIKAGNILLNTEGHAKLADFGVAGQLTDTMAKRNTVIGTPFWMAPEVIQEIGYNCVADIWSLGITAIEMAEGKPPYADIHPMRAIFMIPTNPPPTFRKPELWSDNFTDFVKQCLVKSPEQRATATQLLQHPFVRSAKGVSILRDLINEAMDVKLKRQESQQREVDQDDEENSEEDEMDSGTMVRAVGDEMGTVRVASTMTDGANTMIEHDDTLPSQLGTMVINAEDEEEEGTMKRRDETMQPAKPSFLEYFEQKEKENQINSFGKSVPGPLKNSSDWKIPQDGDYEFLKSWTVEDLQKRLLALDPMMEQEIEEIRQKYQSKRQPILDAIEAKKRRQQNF
In a few lines: as §1

FGFR4, sequence (P22455 22-802, species assumed): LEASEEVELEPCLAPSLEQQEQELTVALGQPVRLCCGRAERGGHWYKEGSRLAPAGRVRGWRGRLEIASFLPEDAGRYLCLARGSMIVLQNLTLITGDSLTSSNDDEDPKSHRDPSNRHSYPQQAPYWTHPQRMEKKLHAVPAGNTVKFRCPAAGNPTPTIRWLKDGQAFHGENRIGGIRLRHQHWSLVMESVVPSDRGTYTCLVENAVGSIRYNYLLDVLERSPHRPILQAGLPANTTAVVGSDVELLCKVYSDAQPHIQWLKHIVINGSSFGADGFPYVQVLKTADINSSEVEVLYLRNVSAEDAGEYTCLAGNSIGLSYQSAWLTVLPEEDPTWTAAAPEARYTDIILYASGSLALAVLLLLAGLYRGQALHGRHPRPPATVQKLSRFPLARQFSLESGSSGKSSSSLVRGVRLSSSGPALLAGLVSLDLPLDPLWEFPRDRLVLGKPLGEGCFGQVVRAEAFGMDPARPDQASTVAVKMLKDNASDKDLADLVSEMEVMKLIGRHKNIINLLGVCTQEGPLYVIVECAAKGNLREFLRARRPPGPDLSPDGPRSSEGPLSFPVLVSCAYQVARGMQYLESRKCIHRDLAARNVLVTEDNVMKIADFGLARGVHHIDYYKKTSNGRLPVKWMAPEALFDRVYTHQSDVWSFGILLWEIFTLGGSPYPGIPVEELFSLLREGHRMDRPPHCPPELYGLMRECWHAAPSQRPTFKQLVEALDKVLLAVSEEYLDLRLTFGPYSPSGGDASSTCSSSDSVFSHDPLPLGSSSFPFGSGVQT
PAK1, sequence (Q13153 whole entry): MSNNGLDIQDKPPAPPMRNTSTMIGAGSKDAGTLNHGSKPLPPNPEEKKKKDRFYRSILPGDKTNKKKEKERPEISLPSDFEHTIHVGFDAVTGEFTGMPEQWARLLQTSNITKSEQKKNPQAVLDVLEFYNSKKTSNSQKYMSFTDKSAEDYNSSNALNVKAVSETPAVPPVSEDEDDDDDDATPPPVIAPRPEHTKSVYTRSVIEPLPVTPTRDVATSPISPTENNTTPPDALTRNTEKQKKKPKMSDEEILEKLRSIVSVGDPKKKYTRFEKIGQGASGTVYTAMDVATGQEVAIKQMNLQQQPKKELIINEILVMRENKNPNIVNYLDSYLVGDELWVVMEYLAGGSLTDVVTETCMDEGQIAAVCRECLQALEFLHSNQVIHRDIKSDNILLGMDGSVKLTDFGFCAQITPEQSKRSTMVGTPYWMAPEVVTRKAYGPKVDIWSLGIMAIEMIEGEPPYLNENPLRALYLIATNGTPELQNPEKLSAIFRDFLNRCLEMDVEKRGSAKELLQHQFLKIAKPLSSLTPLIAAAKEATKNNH
T7 sequence (Q13164 whole entry): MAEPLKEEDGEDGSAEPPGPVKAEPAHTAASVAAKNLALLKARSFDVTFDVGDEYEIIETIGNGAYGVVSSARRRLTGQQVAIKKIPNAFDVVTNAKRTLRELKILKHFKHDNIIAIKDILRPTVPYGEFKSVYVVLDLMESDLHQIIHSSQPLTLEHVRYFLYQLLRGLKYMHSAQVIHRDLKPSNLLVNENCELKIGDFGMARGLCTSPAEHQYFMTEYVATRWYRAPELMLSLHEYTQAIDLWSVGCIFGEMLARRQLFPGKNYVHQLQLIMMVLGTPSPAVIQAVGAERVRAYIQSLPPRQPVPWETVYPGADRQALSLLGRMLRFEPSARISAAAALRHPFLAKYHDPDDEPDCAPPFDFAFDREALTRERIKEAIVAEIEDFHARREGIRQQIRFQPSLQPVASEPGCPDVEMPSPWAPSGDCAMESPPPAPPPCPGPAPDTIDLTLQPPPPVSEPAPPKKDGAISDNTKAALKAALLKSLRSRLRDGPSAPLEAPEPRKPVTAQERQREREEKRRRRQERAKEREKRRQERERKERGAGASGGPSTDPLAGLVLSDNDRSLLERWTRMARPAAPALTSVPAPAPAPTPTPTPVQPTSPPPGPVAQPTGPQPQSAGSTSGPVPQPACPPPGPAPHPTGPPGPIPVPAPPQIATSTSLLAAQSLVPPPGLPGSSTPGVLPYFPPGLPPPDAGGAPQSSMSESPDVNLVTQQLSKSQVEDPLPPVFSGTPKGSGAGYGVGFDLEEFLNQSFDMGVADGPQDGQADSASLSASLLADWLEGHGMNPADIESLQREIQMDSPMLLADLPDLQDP
CAMK1G, sequence (Q96NX5 whole entry): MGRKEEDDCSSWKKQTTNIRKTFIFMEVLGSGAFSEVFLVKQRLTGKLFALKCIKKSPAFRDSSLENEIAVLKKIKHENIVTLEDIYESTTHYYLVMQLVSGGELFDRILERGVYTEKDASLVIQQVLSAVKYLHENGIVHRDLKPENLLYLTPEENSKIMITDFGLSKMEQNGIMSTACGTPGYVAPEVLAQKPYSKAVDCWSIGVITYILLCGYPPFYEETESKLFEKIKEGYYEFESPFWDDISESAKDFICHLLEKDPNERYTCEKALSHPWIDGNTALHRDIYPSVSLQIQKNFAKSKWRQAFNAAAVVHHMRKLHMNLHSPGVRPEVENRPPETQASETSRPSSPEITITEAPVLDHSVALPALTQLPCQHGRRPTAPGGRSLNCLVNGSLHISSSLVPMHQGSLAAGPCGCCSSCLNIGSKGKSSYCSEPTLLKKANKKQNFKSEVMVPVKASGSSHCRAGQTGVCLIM
MAP3K14, sequence (Q99558 whole entry, species assumed): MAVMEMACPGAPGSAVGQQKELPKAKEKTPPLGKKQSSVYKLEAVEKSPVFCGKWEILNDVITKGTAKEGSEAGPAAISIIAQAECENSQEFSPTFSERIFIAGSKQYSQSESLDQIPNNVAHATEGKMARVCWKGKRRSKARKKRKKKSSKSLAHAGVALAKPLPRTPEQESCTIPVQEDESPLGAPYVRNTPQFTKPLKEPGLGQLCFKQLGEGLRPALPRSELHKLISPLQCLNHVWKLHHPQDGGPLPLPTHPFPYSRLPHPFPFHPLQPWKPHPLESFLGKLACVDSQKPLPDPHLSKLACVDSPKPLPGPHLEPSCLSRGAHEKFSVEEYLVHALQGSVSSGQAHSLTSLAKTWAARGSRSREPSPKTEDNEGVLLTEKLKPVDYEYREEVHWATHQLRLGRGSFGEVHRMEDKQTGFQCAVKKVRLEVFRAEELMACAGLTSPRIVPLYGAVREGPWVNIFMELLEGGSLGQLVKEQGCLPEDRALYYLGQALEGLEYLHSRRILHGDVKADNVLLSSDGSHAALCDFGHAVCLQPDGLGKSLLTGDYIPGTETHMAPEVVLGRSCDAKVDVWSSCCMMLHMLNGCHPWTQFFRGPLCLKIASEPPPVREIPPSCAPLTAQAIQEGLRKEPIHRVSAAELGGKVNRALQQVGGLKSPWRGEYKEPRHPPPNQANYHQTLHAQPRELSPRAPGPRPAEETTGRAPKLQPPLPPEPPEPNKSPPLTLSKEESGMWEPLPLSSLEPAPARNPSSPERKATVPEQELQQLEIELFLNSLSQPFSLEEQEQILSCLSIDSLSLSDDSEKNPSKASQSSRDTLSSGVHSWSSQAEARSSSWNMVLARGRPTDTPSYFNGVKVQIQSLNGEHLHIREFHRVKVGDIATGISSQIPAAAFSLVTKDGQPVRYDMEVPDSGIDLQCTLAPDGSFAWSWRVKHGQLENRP

As for `C=CC(=O)N1CCCC(c2c(F)cc(C(N)=O)c3[nH]c4c(c23)CCCCC4)C1` (single isomer, unassigned) [Compound 5-6], the inhibition at 1 µM was 24.4% in experiment [1]; 15.6% in experiment [2]; -31% in experiment [3]; -6.3% in experiment [4]; -34.8% in experiment [5]; -9.4% in experiment [6]. The inhibition at 1 µM in [7] is 20.4%; in [8] it was 24.5%; in [9] it was 44.8%; in experiment [10] it was 10.3%; in [11], 10.5%; in experiment [12], -0.7%. Also, the inhibition at 1 µM is -13.5% in experiment [13], 9.3% in experiment [14] and 0.9% in [15].
As to `C=CC(=O)N1CCC[C@@H](c2c(F)cc(C(N)=O)c3[nH]c4c(c23)CC2(CC4)CC2)C1` [Compound 6-2, (S)-5-(1-acryloylpiperidin-3-yl)-6-fluoro-1,2,4,9-tetrahydrospiro[carbazole-3,1′-cyclopropane]-8-carboxamide], the inhibition at 1 µM in experiment [1] was 34.5%; in experiment [2], 19.6%; in [3], -12.6%; in [4], 5.6%; in [5], -23.1%; in experiment [6], -6.4%. The inhibition at 1 µM in experiment [7] was -2.2%; in experiment [8], 4.9%; in experiment [9], 29.2%; in experiment [10], 31.6%; in experiment [11], -11.5%; in [12] it was 9.4%. Also, the inhibition at 1 µM was -5.8% in experiment [13], 11.4% in experiment [14] and -9.5% in experiment [15].
In the case of `C=CC(=O)N1CCC[C@@H](c2c(F)cc(C(N)=O)c3[nH]c4c(c23)CCC4)C1` [Compound 10-2, (S)-8-(1-acryloylpiperidin-3-yl)-7-fluoro-1,2,3,4-tetrahydrocyclo-penta[b]indole-5-carboxamide], the inhibition at 1 µM in experiment [1] was 7.9%; in [2], 9.7%; in [3], -10.2%; in experiment [4] it was 2.3%; in experiment [5], 6.8%; in experiment [6], -8.5%. Also, the inhibition at 1 µM is 7.2% in experiment [7]; 9.8% in experiment [8]; 12.2% in experiment [9]; 32.7% in experiment [10]; -0.2% in experiment [11]; -4.3% in [12]. The inhibition at 1 µM in [13] is -13.6%; in experiment [14], 6.8%; in experiment [15], 0.4%.
